≈ marks a conversion by molar mass, not a printed value. Calls of active or inactive are those of the source. The calls are words filed in the database; no cut-off is given here.
Columns and labels:
Staphylococcus aureus [1] = test: Antibacterial activity against methicillin-resistant Staphylococcus aureus after 20 to 24 hrs; format: functional
Enterococcus = test: Antibacterial activity against vancomycin-resistant Enterococcus after 20 to 24 hrs; format: functional
Escherichia coli [2] = test: Antibacterial activity against Escherichia coli ATCC 25922 after 20 to 24 hrs; format: functional
Pseudomonas aeruginosa [3] = test: Antibacterial activity against Pseudomonas aeruginosa ATCC 27853 after 20 to 24 hrs; format: functional
Staphylococcus aureus [4] = test: Antibacterial activity against methicillin-resistant Staphylococcus aureus clinical isolate after 20 to 24 hrs; format: functional
Staphylococcus aureus [5] = test: Bactericidal activity against methicillin-resistant Staphylococcus aureus clinical isolate after 24 and 48 hrs; format: functional
Staphylococcus aureus [6] = test: Antibacterial activity against methicillin-sensitive Staphylococcus aureus ATCC 25923 after 20 to 24 hrs; format: functional
Staphylococcus aureus [7] = test: Antibacterial activity against methicillin-sensitive Staphylococcus aureus ATCC 6538 after 20 to 24 hrs; format: functional
Staphylococcus aureus [8] = test: Antibacterial activity against methicillin-sensitive Staphylococcus aureus ATCC 49775 after 20 to 24 hrs; format: functional
Staphylococcus aureus [9] = test: Antibacterial activity against methicillin-sensitive Staphylococcus aureus ATCC 29213 after 20 to 24 hrs; format: functional
Staphylococcus aureus [10] = test: Bactericidal activity against methicillin-sensitive Staphylococcus aureus ATCC 25923 after 24 and 48 hrs; format: functional
Staphylococcus aureus [11] = test: Bactericidal activity against methicillin-sensitive Staphylococcus aureus ATCC 6538 after 24 and 48 hrs; format: functional
Staphylococcus aureus [12] = test: Bactericidal activity against methicillin-sensitive Staphylococcus aureus ATCC 49775 after 24 and 48 hrs; format: functional
Staphylococcus aureus [13] = test: Bactericidal activity against methicillin-sensitive Staphylococcus aureus ATCC 29213 after 24 and 48 hrs; format: functional
[14] = Cytotoxicity against human HepG2 cells after 24 hrs by WST-1 based colorimetric assay; format: cell-based
Staphylococcus aureus [15] = test: Antibacterial activity against Staphylococcus aureus ATCC 29213 after 20 to 24 hrs in presence of 2% heat inactivated bovine serum; format: functional
Escherichia coli [16] = test: Antibacterial activity against Escherichia coli ATCC 25922 after 20 to 24 hrs in presence of polymyxin B nonapeptide; format: functional
Pseudomonas aeruginosa [17] = test: Antibacterial activity against Pseudomonas aeruginosa ATCC 27853 after 20 to 24 hrs in presence of polymyxin B nonapeptide; format: functional
Staphylococcus aureus [18] = test: Bactericidal activity against methicillin-sensitive Staphylococcus aureus ATCC 29213 assessed as log reduction in bacterial cell number at MIC after 8 hrs by time-kill curve analysis; format: functional
Staphylococcus aureus [19] = test: Bactericidal activity against methicillin-sensitive Staphylococcus aureus ATCC 29213 assessed as log reduction in bacterial cell number at 2 times MIC after 8 hrs by time-kill curve analysis; format: functional
Staphylococcus aureus [20] = test: Bactericidal activity against methicillin-sensitive Staphylococcus aureus ATCC 29213 assessed as log reduction in bacterial cell number at 4 times MIC after 8 hrs by time-kill curve analysis; format: functional
Staphylococcus aureus [21] = test: Bactericidal activity against methicillin-sensitive Staphylococcus aureus ATCC 29213 assessed as log reduction in bacterial cell number at 8 times MIC after 8 hrs by time-kill curve analysis; format: functional
Staphylococcus aureus [22] = test: Bactericidal activity against methicillin-sensitive Staphylococcus aureus clinical isolate USA300 assessed as log reduction in bacterial cell number at MIC after 8 hrs by time-kill curve analysis; format: functional
Staphylococcus aureus [23] = test: Bactericidal activity against […] Staphylococcus aureus clinical isolate USA300 assessed as log reduction in bacterial cell number at 2 times MIC after 8 hrs by time-kill curve analysis; format: functional
Staphylococcus aureus [24] = test: Bactericidal activity against […] Staphylococcus aureus clinical isolate USA300 assessed as log reduction in bacterial cell number at 4 times MIC after 8 hrs by time-kill curve analysis; format: functional
Staphylococcus aureus [25] = test: Bactericidal activity against […] Staphylococcus aureus clinical isolate USA300 assessed as log reduction in bacterial cell number at 8 times MIC after 8 hrs by time-kill curve analysis; format: functional
Staphylococcus aureus [26] = test: Bactericidal activity against Methicillin-sensitive Staphylococcus aureus ATCC 29213 assessed as log reduction in bacterial cell number at 2 times MIC after 24 hrs by time kill curve analysis; format: functional, organism-based
Staphylococcus aureus [27] = test: Bactericidal activity against Methicillin-sensitive Staphylococcus aureus ATCC 29213 assessed as log reduction in bacterial cell number at 4 times MIC after 24 hrs by time kill curve analysis; format: functional, organism-based
Staphylococcus aureus [28] = test: Bactericidal activity against Methicillin-sensitive Staphylococcus aureus ATCC 29213 assessed as log reduction in bacterial cell number at 8 times MIC after 24 hrs by time-kill curve analysis; format: functional, organism-based
Staphylococcus aureus [29] = test: Bactericidal activity against […] Staphylococcus aureus clinical isolate USA300 assessed as log reduction in bacterial cell number at MIC after 24 hrs by time-kill curve analysis; format: functional, organism-based
Staphylococcus aureus [30] = test: Bactericidal activity against […] Staphylococcus aureus clinical isolate USA300 assessed as log reduction in bacterial cell number at 2 times MIC after 24 hrs by time-kill curve analysis; format: functional, organism-based
Staphylococcus aureus [31] = test: Bactericidal activity against […] Staphylococcus aureus clinical isolate USA300 assessed as log reduction in bacterial cell number at 4 times MIC after 24 hrs by time-kill curve analysis; format: functional, organism-based
Staphylococcus aureus [32] = test: Bactericidal activity against […] Staphylococcus aureus clinical isolate USA300 assessed as log reduction in bacterial cell number at 8 times MIC after 24 hrs by time-kill curve analysis; format: functional, organism-based
[33] = Toxicity in sheep erythrocytes assessed as hemolysis at 600 uM after 30 mins; format: cell-based, Ovis aries; conditions: erythrocyte, 0.5 h
[34] = Cytotoxicity against human HEL299 cells after 24 hrs by WST-1 based colorimetric assay; format: cell-based, HEL 299
[35] = Lipophilicity, logD of the compound at pH 3; format: physicochemical; conditions: buffer
[36] = Lipophilicity, logD of the compound at pH 7.4; format: physicochemical; conditions: buffer
[37] = Solubility of the compound at pH 2; format: physicochemical; conditions: buffer
[38] = Solubility of the compound at pH 6.5; format: physicochemical; conditions: buffer
[39] = Half life of compound in human liver microsomes; format: ADME
[40] = Half life of compound in mouse liver microsomes; format: ADME
[41] = Intrinsic clearance in human liver microsomes assessed per mg of protein; format: ADME; conditions: read-out: CLH
[42] = Intrinsic clearance in mouse liver microsomes assessed per mg of protein; format: ADME; conditions: read-out: CLH
[43] = Selectivity index, ratio of GI50 for human HEL299 cells to MIC50 for methicillin-sensitive Staphylococcus aureus clinical isolate; format: functional, HEL 299
[44] = Selectivity index, ratio of GI50 for human HEL299 cells to MIC50 for methicillin-resistant Staphylococcus aureus clinical isolate; format: functional, HEL 299
[45] = Selectivity index, ratio of GI50 for human HepG2 cells to MIC50 for methicillin-sensitive Staphylococcus aureus clinical isolate; format: functional
[46] = Selectivity index, ratio of GI50 for human HepG2 cells to MIC50 for methicillin-resistant Staphylococcus aureus clinical isolate; format: functional
Staphylococcus aureus [47] = test: Antibacterial activity against methicillin-sensitive Staphylococcus aureus ATCC 6538 after 20 to 24 hrs in presence of 50% heat inactivated bovine serum; format: functional
Staphylococcus aureus [48] = test: Antibacterial activity against methicillin-sensitive Staphylococcus aureus ATCC 49775 after 20 to 24 hrs in presence of 50% heat inactivated bovine serum; format: functional
Staphylococcus aureus [49] = test: Antibacterial activity against methicillin-sensitive Staphylococcus aureus ATCC 29213 after 20 to 24 hrs in presence of 50% heat inactivated bovine serum; format: functional
Staphylococcus aureus [50] = test: Ratio of MBC for methicillin-sensitive Staphylococcus aureus ATCC 25923 to MIC90 for methicillin-sensitive Staphylococcus aureus ATCC 25923; format: functional
Staphylococcus aureus [51] = test: Ratio of MBC for methicillin-sensitive Staphylococcus aureus ATCC 6538 to MIC90 for methicillin-sensitive Staphylococcus aureus ATCC 6538; format: functional
Staphylococcus aureus [52] = test: Ratio of MBC for methicillin-sensitive Staphylococcus aureus ATCC 49775 to MIC90 for methicillin-sensitive Staphylococcus aureus ATCC 49775; format: functional
Staphylococcus aureus [53] = test: Ratio of MBC for methicillin-sensitive Staphylococcus aureus ATCC 29213 to MIC90 for methicillin-sensitive Staphylococcus aureus ATCC 29213; format: functional
Staphylococcus aureus [54] = test: Antibacterial activity against methicillin-sensitive Staphylococcus aureus ATCC 29213 after 20 to 24 hrs in presence of 50% heat inactivated bovine serum
Staphylococcus aureus [55] = test: as above; remark: listed apart in the source
Staphylococcus aureus [56] = test: Bactericidal activity against Methicillin-sensitive Staphylococcus aureus ATCC 29213 assessed as log reduction in bacterial cell number at MIC after 8 hrs by time kill curve analysis

CC1(C)S[C@@H]2[C@H](NC(=O)[C@H](N)c3ccccc3)C(=O)N2[C@H]1C(=O)O [AMPICILLIN]
MIC (Staphylococcus aureus [1]): 183 µM (≈ 63.9 µg/mL)
MIC (Enterococcus): 11.5 µM (≈ 4.02 µg/mL)
MIC (Escherichia coli [2]): 45.8 µM (≈ 16 µg/mL)
MIC (Pseudomonas aeruginosa [3]): 366 µM (≈ 128 µg/mL)
MIC90 (Staphylococcus aureus [4]): 0.3 µM (≈ 0.105 µg/mL)
MBC (Staphylococcus aureus [5]): 2 µM (≈ 0.699 µg/mL)
MIC90 (Staphylococcus aureus [6]): 0.3 µM (≈ 0.105 µg/mL)
MIC90 (Staphylococcus aureus [7]): 0.3 µM (≈ 0.105 µg/mL)
MIC90 (Staphylococcus aureus [8]): 0.3 µM (≈ 0.105 µg/mL)
MIC90 (Staphylococcus aureus [9]): 0.3 µM (≈ 0.105 µg/mL)
MBC (Staphylococcus aureus [10]): 2 µM (≈ 0.699 µg/mL)
MBC (Staphylococcus aureus [11]): 2 µM (≈ 0.699 µg/mL)
MBC (Staphylococcus aureus [12]): 2 µM (≈ 0.699 µg/mL)
MBC (Staphylococcus aureus [13]): 2 µM (≈ 0.699 µg/mL)

CC(C)(C)c1ccc(/C=N/NC(=N)N/N=C/c2ccc(C(C)(C)C)cc2)cc1
GI50 at 24 h [14]: 26.3 µM
MIC (Staphylococcus aureus [1]): 24.2 µM (≈ 9.14 µg/mL)
MIC (Enterococcus): 29 µM (≈ 10.9 µg/mL)
MIC (Escherichia coli [2]): > 400 µM
MIC (Pseudomonas aeruginosa [3]): > 400 µM
MIC90 (Staphylococcus aureus [4]): 4.8 µM (≈ 1.81 µg/mL)
MIC90 (Staphylococcus aureus [15]): 38.6 µM
MBC (Staphylococcus aureus [5]): 4.8 µM (≈ 1.81 µg/mL)
MIC90 (Escherichia coli [16]): > 250 µM
MIC90 (Pseudomonas aeruginosa [17]): > 250 µM
Activity (Staphylococcus aureus [18]): >=4 log10CFU/ml
Activity (Staphylococcus aureus [19]): >=4 log10CFU/ml
Activity (Staphylococcus aureus [20]): >=4 log10CFU/ml
Activity (Staphylococcus aureus [21]): >=4 log10CFU/ml
Activity (Staphylococcus aureus [22]): >=4 log10CFU/ml
Activity (Staphylococcus aureus [23]): >=4 log10CFU/ml
Activity (Staphylococcus aureus [24]): >=4 log10CFU/ml
Activity (Staphylococcus aureus [25]): >=4 log10CFU/ml
Activity (Staphylococcus aureus [26]): inactive
Activity (Staphylococcus aureus [27]): inactive
Activity (Staphylococcus aureus [28]): inactive
Activity (Staphylococcus aureus [29]): inactive
Activity (Staphylococcus aureus [30]): inactive
Activity (Staphylococcus aureus [31]): inactive
Activity (Staphylococcus aureus [32]): inactive
Activity [33]: Non-toxic
GI50 at 24 h [34]: 28.8 µM
logD [35]: 4.9
logD [36]: > 5.3
solubility [37]: < 1.6 µg/mL
solubility [38]: < 1.6 µg/mL
half-life [39]: 20 min
half-life [40]: 25 min
microsomal CLint [41]: 89 µL/min/mg
microsomal CLint [42]: 70 µL/min/mg
Selectivity Index [43]: 2
Selectivity Index [44]: 2
Selectivity Index [45]: 2
Selectivity Index [46]: 2
MIC90 (Staphylococcus aureus [6]): 4.8 µM (≈ 1.81 µg/mL)
MIC90 (Staphylococcus aureus [7]): 4.8 µM (≈ 1.81 µg/mL)
MIC90 (Staphylococcus aureus [8]): 4.8 µM (≈ 1.81 µg/mL)
MIC90 (Staphylococcus aureus [9]): 4.8 µM (≈ 1.81 µg/mL)
MIC90 (Staphylococcus aureus [47]): > 250 µM
MIC90 (Staphylococcus aureus [48]): > 250 µM
MIC90 (Staphylococcus aureus [49]): > 250 µM
MBC (Staphylococcus aureus [10]): 4.8 µM (≈ 1.81 µg/mL)
MBC (Staphylococcus aureus [11]): 4.8 µM (≈ 1.81 µg/mL)
MBC (Staphylococcus aureus [12]): 4.8 µM (≈ 1.81 µg/mL)
MBC (Staphylococcus aureus [13]): 4.8 µM (≈ 1.81 µg/mL)
Ratio (Staphylococcus aureus [50]): 1
Ratio (Staphylococcus aureus [51]): 1
Ratio (Staphylococcus aureus [52]): 1
Ratio (Staphylococcus aureus [53]): 1
MIC90 (Staphylococcus aureus [54]): > 250 µM
MIC90 (Staphylococcus aureus [55]): > 250 µM
Activity (Staphylococcus aureus [56]): inactive

N=C(N/N=C/c1ccc(Cl)cc1Cl)N/N=C/c1ccc(Cl)cc1Cl
MIC (Staphylococcus aureus [1]): > 400 µM
MIC (Enterococcus): > 400 µM
MIC (Escherichia coli [2]): > 400 µM
MIC (Pseudomonas aeruginosa [3]): > 400 µM

N=C(N/N=C/c1ccc(/C=C/C(=O)O)cc1)N/N=C/c1ccc(/C=C/C(=O)O)cc1
MIC (Staphylococcus aureus [1]): > 400 µM
MIC (Enterococcus): > 400 µM
MIC (Escherichia coli [2]): > 400 µM
MIC (Pseudomonas aeruginosa [3]): > 400 µM

Source: ChEMBL document CHEMBL3779887, “Robenidine Analogues as Gram-Positive Antibacterial Agents” (J Med Chem, 2016)
